A word on the DC50: it is the concentration giving 50% degradation.

One series concerns the target T1, human CAR LBD (Homo sapiens, UniProt Q14994).
T1 sequence (Q14994 103-352): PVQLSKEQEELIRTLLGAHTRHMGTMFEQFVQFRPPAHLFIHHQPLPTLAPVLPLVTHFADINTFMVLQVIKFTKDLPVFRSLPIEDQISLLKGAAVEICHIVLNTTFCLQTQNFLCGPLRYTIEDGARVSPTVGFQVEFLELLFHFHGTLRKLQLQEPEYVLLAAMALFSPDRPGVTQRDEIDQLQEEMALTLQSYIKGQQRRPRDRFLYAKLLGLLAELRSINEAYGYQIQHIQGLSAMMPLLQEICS
Put plainly: LanthaScreen TR-FRET CAR Coactivator assay. Format: biochemical. The conditions noted are these: nb = no binding. Here is the method:
We utilized the LanthaScreen TR-FRET CAR Coactivator Binding Assay Kit, goat (Thermo Fisher Scientific, Cat. No. PV4836), which includes GST-tagged human CAR LBD and a fluorescein-labeled PGC1α coactivator peptide. The assay was performed with slight modifications to the manufacturer’s protocol, as previously reported. […] The interaction with the PXR ligand-binding domain (LBD) was assessed using the LanthaScreen TR-FRET PXR Competitive Binding Assay (Thermo Fisher Scientific, PV4839), as previously described. This assay quantifies the ability of test compounds to displace a fluorescent PXR ligand from the receptor. Fluorescence readings were taken on a Synergy 2 Multi-Mode Microplate Reader (BioTek, Winooski, VT). The half-maximal inhibitory concentration (IC50) for PXR LBD was calculated from at least eight data points using GraphPad Prism software.

The target in the next series is AhR (Homo sapiens, UniProt P35869). Briefly: AhR agonist reporter assay. Format: cell-based. To be noted: 10 µM MI891. As for the experimental part: For the farnesoid X receptor (FXR) luciferase gene reporter assay, the full-length expression vector was paired with pFXRE-luc luciferase construct. The p1A1-luc construct was used in the aryl hydrocarbon receptor (AhR) assays with pRL-TK for normalization. Gal4-LXR-α/β, and Gal4-PPAR-γ constructs were used with the pGAL4 UAS-luc construct. For the VDR assay, expression vector pSG5-hVDR together with pVDRE-luc constructs was used. Firefly and Renilla luciferase activities were analyzed using a Dual reporter assay (Promega). For the nuclear receptor assays, prototype ligands were used at the following concentrations: Calcitriol for VDR (100 nM), GW3965 for LXRα and LXRβ (10 μM), 6-OCA for FXR (1 μM), fenofibrate for PPARα (10 μM), estradiol for ERα and β (10 μM), rosiglitazone for PPARγ (10 μM), 3-MC for AhR (5 μM), and TCPOBOP for mCAR (10 μM). Detailed descriptions and protocols are detailed in our recent publication. , […]
hydrophobic interactions. (F) Superimposed diagram of PXR bound with agonist (SJPYT-328) and antagonists (MI891 and SJPYT-331) to differentiate the agonist and antagonist interactions with helix 12 (H12). The interaction of the agonist with PXR residue (L428) is circled. (G) Extended nuclear receptor selectivity profile. […]

Series [1] in a line: Plasma stability, mouse plasma. Format: in vitro ADME. To be noted: up to 120 min, read-out: Plasma stability, t1/2 (min), mouse. Here is the method:
The protocols and reagents for the plasma protein binding assay and metabolic stability testing in human and mouse liver microsomes are detailed in our previous report. Briefly, metabolic stability of compounds was assessed at a single concentration (5 μM) at t = 0, 10, 30, and at t = 45 min. The stability of compounds was tested in human and mouse microsomes (ThermoFisher Scientific). Compounds were tested in triplicate with or without NADPH wells as a negative control for cytochrome P450 metabolism. In addition to hepatic metabolism, compounds were also subjected to degradation/modification by enzymes in human (VWR International) and mouse (Biomedica, CZ) plasma for t = 0, 30, 60, and at t = 120 min. Each assay included a substrate with known activity as a positive control. Time points were analyzed by LC/MS/MS. The peak area for the parent compound is compared to the time zero sample in order to assess the amount of remaining compound.

A further series deals with RXRα. Put plainly: Western blot of RXRα in HepaRG cells. Format: cell-based, human. To be noted: 24 h. As for the experimental part:
The harvested HepaRG cells were lysed in RIPA lysis buffer (Cat. no 89900, Thermo Scientific) containing Halt protease inhibitor cocktail inhibitors (Thermo Scientific). Protein concentration was measured using the Pierce BCA Protein Assay Kit (Cat. no. 23225, Thermo Scientific), samples were diluted in 4 × Laemmli sample buffer (Cat. no. 1610747, BioRad) supplemented with mercaptoethanol and heated at 95 °C for 5 min. Equal amounts of protein were loaded in 4–20% Mini-PROTEAN TGX Stain-Free Protein Gels (12 well. cat. no. 4561095 or 15 well, cat. no. 4568096, Bio-Rad), electrophorised, and transferred onto Trans-Blot Turbo Midi-size PVDF Membrane (cat. no. 1704273, Bio-Rad), and blocked with EveryBlot Blocking buffer for 10 min (cat. no. 12010020, Bio-Rad). […] Chemiluminescence signals were detected using SuperSignal West Femto Maximum Sensitivity Substrate (cat. no. 34096, Thermo Scientific) and visualized by the ChemiDoc MP Imaging system (Universal Hood III, #731BR02821, Bio-Rad), and the bands were quantified using β-actin (1:2000, recombinant rabbit conjugated monoclonal antibody (JF53-10), cat. no. MA5-32540, Invitrogen) as loading control with ImageJ (version 1.54g) software.
Background: A western blot detects proteins with antibodies after separation by electrophoresis.

The target in another series is T2, PXR (Homo sapiens, UniProt O75469+Q96SW2).
T2 construct: differentiated hepatic HepaRG cells, which naturally express high PXR activity and expression; endogenous in cells; host or cells: differentiated HepaRG
Put plainly: Western blot of PXR in differentiated HepaRG cells. Format: cell-based. Here is the method:
The harvested HepaRG cells were lysed in RIPA lysis buffer (Cat. no 89900, Thermo Scientific) containing Halt protease inhibitor cocktail inhibitors (Thermo Scientific). Protein concentration was measured using the Pierce BCA Protein Assay Kit (Cat. no. 23225, Thermo Scientific), samples were diluted in 4 × Laemmli sample buffer (Cat. no. 1610747, BioRad) supplemented with mercaptoethanol and heated at 95 °C for 5 min. Equal amounts of protein were loaded in 4–20% Mini-PROTEAN TGX Stain-Free Protein Gels (12 well. cat. no. 4561095 or 15 well, cat. no. 4568096, Bio-Rad), electrophorised, and transferred onto Trans-Blot Turbo Midi-size PVDF Membrane (cat. no. 1704273, Bio-Rad), and blocked with EveryBlot Blocking buffer for 10 min (cat. no. 12010020, Bio-Rad). The membranes were incubated overnight at 4 °C with the following antibodies: PXR polyclonal antibody (1:500, PA5–41170, Invitrogen), RXRA polyclonal antibody (1:1000, 21218–1-AP, Proteintech), and GSPT1 polyclonal antibody (1:1000, 10763-a-AP, Proteintech), washed with TBS-T for 3 times, and followed by incubation with goat antirabbit IgG (H + L) Secondary antibody, HRP (1:200, 000, 1 h, cat. no. 31460, Invitrogen). Chemiluminescence signals were detected using SuperSignal West Femto Maximum Sensitivity Substrate (cat. no. 34096, Thermo Scientific) and visualized by the ChemiDoc MP Imaging system (Universal Hood III, #731BR02821, Bio-Rad), and the bands were quantified using β-actin (1:2000, recombinant rabbit conjugated monoclonal antibody (JF53-10), cat. no. MA5-32540, Invitrogen) as loading control with ImageJ (version 1.54g) software.

T2 sequence (O75469 whole entry): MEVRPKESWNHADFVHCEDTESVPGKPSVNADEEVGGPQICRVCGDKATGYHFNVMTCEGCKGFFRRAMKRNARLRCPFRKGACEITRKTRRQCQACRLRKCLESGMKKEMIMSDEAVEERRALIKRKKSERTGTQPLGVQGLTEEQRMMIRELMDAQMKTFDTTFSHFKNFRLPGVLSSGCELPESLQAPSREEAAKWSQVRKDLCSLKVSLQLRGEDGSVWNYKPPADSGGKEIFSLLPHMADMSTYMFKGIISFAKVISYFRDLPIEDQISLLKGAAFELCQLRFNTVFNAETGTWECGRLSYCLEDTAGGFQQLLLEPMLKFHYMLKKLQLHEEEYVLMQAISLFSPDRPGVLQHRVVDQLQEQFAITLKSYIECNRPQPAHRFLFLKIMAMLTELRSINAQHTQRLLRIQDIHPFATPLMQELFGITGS
T2 sequence (Q96SW2 whole entry): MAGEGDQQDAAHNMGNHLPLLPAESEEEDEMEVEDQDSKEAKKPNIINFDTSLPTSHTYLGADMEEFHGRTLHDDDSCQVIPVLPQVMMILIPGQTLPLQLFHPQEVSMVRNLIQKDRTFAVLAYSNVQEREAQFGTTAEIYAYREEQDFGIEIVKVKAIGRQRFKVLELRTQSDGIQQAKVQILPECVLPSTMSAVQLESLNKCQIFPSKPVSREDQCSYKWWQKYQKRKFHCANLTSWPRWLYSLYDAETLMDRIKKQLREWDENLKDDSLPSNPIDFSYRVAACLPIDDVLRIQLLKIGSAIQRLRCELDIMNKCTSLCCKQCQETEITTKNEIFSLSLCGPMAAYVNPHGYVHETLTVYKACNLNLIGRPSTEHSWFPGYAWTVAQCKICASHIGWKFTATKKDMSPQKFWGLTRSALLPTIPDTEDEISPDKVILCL
Chain of AhR (P35869 11-848, species assumed): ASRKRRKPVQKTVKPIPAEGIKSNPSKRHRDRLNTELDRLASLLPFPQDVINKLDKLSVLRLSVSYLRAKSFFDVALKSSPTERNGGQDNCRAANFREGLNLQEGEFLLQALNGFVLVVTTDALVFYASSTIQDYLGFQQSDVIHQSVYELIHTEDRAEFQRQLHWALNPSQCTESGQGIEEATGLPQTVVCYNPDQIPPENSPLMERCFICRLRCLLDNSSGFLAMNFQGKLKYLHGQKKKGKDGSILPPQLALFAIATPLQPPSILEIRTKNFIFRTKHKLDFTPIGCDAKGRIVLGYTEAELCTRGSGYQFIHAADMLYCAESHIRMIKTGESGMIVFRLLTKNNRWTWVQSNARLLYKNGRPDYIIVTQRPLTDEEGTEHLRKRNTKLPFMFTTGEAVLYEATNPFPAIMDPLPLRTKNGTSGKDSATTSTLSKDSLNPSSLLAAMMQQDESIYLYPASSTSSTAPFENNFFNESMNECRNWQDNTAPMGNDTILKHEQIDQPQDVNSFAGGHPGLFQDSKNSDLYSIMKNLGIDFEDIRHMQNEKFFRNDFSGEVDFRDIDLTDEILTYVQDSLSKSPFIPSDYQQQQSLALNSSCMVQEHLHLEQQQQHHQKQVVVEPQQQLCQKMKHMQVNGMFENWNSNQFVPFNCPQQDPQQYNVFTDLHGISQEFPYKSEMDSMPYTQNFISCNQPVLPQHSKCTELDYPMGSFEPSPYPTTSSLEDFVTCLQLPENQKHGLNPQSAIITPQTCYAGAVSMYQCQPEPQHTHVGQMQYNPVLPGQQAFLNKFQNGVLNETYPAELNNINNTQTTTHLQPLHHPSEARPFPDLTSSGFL

Regarding `NC(=O)c1cc(Cn2cc(-c3c(-c4ccc(Cl)cc4)nc4c(F)cc(F)cn34)nn2)ccc1Cl` [Compound 11, 2-Chloro-5-((4-(2-(4-chlorophenyl)-6,8-difluoroimidazo[1,2-a]pyridin-3-yl)-1H-1,2,3-triazol-1-yl)methyl)-benzamide], the “CAR TR-FRET (EC50, μM)” value on human CAR LBD (listed as 11 (MI891)) is on record as “nb”; on human CAR LBD (listed as MI891), “no binding activity”. Besides, at AhR, the “agonistic effect on AhR” value is “no agonistic effects”. Moreover, the half-life in series [1] was over 120 min.

“N-(4-((1-(2,5-dimethoxyphenyl)-5-methyl-1H-1,2,3-triazol-4-yl)sulfonyl)phenyl)-3-(2-(2-(2-(4-(((2-(2,6-dioxopiperidin-3-yl)-1,3-dioxoisoindolin-4-yl)amino)methyl)-1H-1,2,3-triazol-1-yl)ethoxy)ethoxy)ethoxy)propenamide [Compound 36]”: the RXRα degradation result with RXRα is “does not degrade”. Moreover, at PXR (2 μM, reversal of PXR expression after 72 h), the “PXR degradation, time course” value is given as “significant degradation of PXR after 12 h”. Also, the “PXR degradation (Western blot)” value on PXR (24 h) was “selectively degrades PXR”. For the same compound, the “PXR degradation Dmax” value at PXR (24 h, Western blot) came out at 82%. Besides, the DC50 at PXR (24 h, Western blot, read-out: PXR degradation DC50) was determined as 0.089 µM.

Source of the values: paper PMC12305494, “Discovery of PXR Antagonist MI891 and PXR Degrader MI1013 and Their Roles in Hepatic Gene Regulation” (Journal of Medicinal Chemistry, 2025).
